Literature values, collected in patent US20070072885A1, “BICYCLIC DERIVATIVES FOR THE TREATMENT OF ABNORMAL CELL GROWTH” (Pfizer Inc, priority 2005, published 2007).

Experiments:
[1] = test system: another carcinoma which does not express the EGF receptor
[2] = test system: transplanted human mammary carcinoma which expresses epidermal growth factor receptor tyrosine kinase (EGFR); conditions: EGFR-expressing carcinoma in athymic nude mice

For `O=CN/C=C/c1cc(O)ccc1O` [erbstatin], which “growth of another carcinoma” value [1] is on record?
Its value is “without effect”.

What about the “growth of transplanted human mammary carcinoma” value [2] of the same molecule?
The value was “selectively attenuates the growth”.
